Here are results for 22 compounds from US11390604B2 (Hoffmann-La Roche Inc., priority 2019, dated 2022).

This test relates to Acinetobacter baumannii ATCC 17961. As to the kind of experiment: Antimicrobial susceptibility testing: 90% growth inhibitory concentration (IC90) determination. It is filed as cell-based. The procedure, abridged:
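Broth microdilution in Iso-Sensitest medium, twofold series (e.g. 50 to 0.097 μM final), ~5×10^5 CFU/ml inoculum, 35±2 °C. OD600 read every 20 min over 16 h. IC90 derived from growth inhibition during logarithmic phase.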

[1] abbreviates: ATCC17961, Acinetobacter baumannii ATCC 17961, Iso-Sensitest broth, read-out: ATCC 17961 IC90.
[2] abbreviates: Acinetobacter baumannii, ATCC17961, read-out: ATCC 17961 IC90, Acinetobacter baumannii ATCC 17961, Iso-Sensitest broth.

Each structure is given as a SMILES string. Counter-ions that a name gives are not always drawn. Like-named read-outs stand apart in the source and are kept apart here.

The term IC90 denotes the point of the concentration-response curve where the effect stands at 90%. With `C[C@H](N)C(=O)N1CCN(C(=O)c2ccc(NC(=O)c3ncc(-c4cn(CC5CCC5)nc4C(F)(F)F)n3C)cc2Cl)CC1` [Example 278, N-(4-(4-(L-alanyl)piperazine-1-carbonyl)-3-chlorophenyl)-5-(1-(cyclobutylmethyl)-3-(trifluoromethyl)-1H-pyrazol-4-yl)-1-methyl-1H-imidazole-2-carboxamide hydrochloride], the IC90 under setting [1] turned out to be 344 nM.

With `Cn1c(-c2cn(CC3CCC3)nc2C(F)(F)F)cnc1C(=O)Nc1ccc(C(=O)N2CCN(C(=O)C3CCN3)CC2)c(Cl)c1` (stereo not shown) [Example 281, N-(4-(4-(azetidine-2-carbonyl)piperazine-1-carbonyl)-3-chlorophenyl)-5-(1-(cyclobutylmethyl)-3-(trifluoromethyl)-1H-pyrazol-4-yl)-1-methyl-1H-imidazole-2-carboxamide hydrochloride], the concentration for an effect of 90% (IC90) under setting [1] stood at 348 nM. In the case of `Cn1c(-c2cn(CC(F)F)nc2C(F)(F)F)cnc1C(=O)Nc1ccc(S(=O)(=O)N2CCN(C(=O)CN)CC2)cc1` [Example 282, 5-(1-(2,2-difluoroethyl)-3-(trifluoromethyl)-1H-pyrazol-4-yl)-N-(4-((4-glycylpiperazin-1-yl)sulfonyl)phenyl)-1-methyl-1H-imidazole-2-carboxamide formate], under setting [1], the IC90 was 348 nM.

Regarding `CCn1cc(-c2cnc(C(=O)Nc3ccc(C(=O)NCCCCCCN)c(Br)c3)n2C)c(C(F)(F)F)n1` [Example 284, N-(4-((6-aminohexyl)carbamoyl)-3-bromophenyl)-5-(1-ethyl-3-(trifluoromethyl)-1H-pyrazol-4-yl)-1-methyl-1H-imidazole-2-carboxamide hydrochloride], the IC90 under setting [1] was 350 nM. The same measure, in the same setting: to `Cn1c(-c2cn(C3CC3)nc2C(F)(F)F)cnc1C(=O)Nc1ccc(C(=O)N2CCN(C(=O)[C@@H](N)CCCN)CC2)c(Cl)c1` [Example 285, (S)-N-(3-chloro-4-(4-(2,5-diaminopentanoyl)piperazine-1-carbonyl)phenyl)-5-(1-cyclopropyl-3-(trifluoromethyl)-1H-pyrazol-4-yl)-1-methyl-1H-imidazole-2-carboxamide dihydrochloride] belongs 351 nM; to `Cn1c(-c2cn(C3CC3)nc2C(F)(F)F)cnc1C(=O)Nc1ccc(C(=O)N2CCN(C(=O)C3CNCC(O)C3)CC2)c(Cl)c1` (stereo not shown) [Example 286, N-[3-chloro-4-[4-(5-hydroxypiperidine-3-carbonyl)piperazine-1-carbonyl]phenyl]-5-[1-cyclopropyl-3-(trifluoromethyl)pyrazol-4-yl]-1-methylimidazole-2-carboxamide;hydrochloride], 351 nM; to `Cn1c(-c2cn(C3CC3)nc2C(F)(F)F)cnc1C(=O)Nc1ccc(C(=O)N2CCN(C(=O)[C@@H]3CCC[C@@H](N)C3)CC2)c(Cl)c1` [Example 287, N-(4-(4-((1R,3R)-3-aminocyclohexane-1-carbonyl)piperazine-1-carbonyl)-3-chlorophenyl)-5-(1-cyclopropyl-3-(trifluoromethyl)-1H-pyrazol-4-yl)-1-methyl-1H-imidazole-2-carboxamide hydrochloride], 352 nM. Still for that read-out and setting: to `Cn1c(-c2cn(C3CC3)nc2C(F)(F)F)cnc1C(=O)Nc1ccc(C(=O)NC[C@H]2CC[C@H](N)CC2)c(Cl)c1` [Example 289, rac-N-(4-((((1r,4r)-4-aminocyclohexyl)methyl)carba-moyl)-3-chlorophenyl)-5-(1-cyclopropyl-3-(trifluoromethyl)-1H-pyrazol-4-yl)-1-methyl-1H-imidazole-2-carboxamide hydrochloride] belongs 354 nM; to `Cn1c(-c2cn(CC(F)F)nc2C(F)(F)F)cnc1C(=O)Nc1ccc(C(=O)N2CCN(CCN)CC2)c(Cl)c1` [Example 290, N-(4-(4-(2-aminoethyl)piperazine-1-carbonyl)-3-chlorophenyl)-5-(1-(2,2-difluoroethyl)-3-(trifluoromethyl)-1H-pyrazol-4-yl)-1-methyl-1H-imidazole-2-carboxamide formate], 358 nM. Same read-out and setting: to `Cc1cc(NC(=O)c2ncc(-c3cn(CC#N)nc3C(F)(F)F)n2C)ccc1S(C)(=O)=NCCCN` (stereo not shown) [Example 291, N-[4-[N-(3-aminopropyl)-S-methyl-sulfonimidoyl]-3-methyl-phenyl]-5-[1-(cyanomethyl)-3-(trifluoromethyl)pyrazol-4-yl]-1-methyl-imidazole-2-carboxamide; formic acid] belongs 359 nM.

For the compound `CC(C)Cn1cc(-c2cnc(C(=O)Nc3ccc(C(=O)N4CCN(C(=O)N[C@H]5C[C@@H](N)C5)CC4)c(Cl)c3)n2C)c(C(F)(F)F)n1` [Example 292, rac-N-((1s,3s)-3-aminocyclobutyl)-4-(2-chloro-4-(5-(1-isobutyl-3-(trifluoromethyl)-1H-pyrazol-4-yl)-1-methyl-1H-imidazole-2-carboxamido)benzoyl)piperazine-1-carboxamide hydrochloride], the concentration for an effect of 90% (IC90) under setting [2] was 361 nM.

In the case of `Cn1c(-c2cn(CC3CC(F)(F)C3)nc2C(F)(F)F)cnc1C(=O)Nc1ccc(C(=O)N2CCN(C(=O)N[C@H]3C[C@@H](N)C3)CC2)c(Cl)c1` [Example 293, rac-N-((1s,3s)-3-aminocyclobutyl)-4-(2-chloro-4-(5-(1-((3,3-difluorocyclobutypmethyl)-3-(trifluoromethyl)-1H-pyrazol-4-yl)-1-methyl-1H-imidazole-2-carboxamido)benzoyl)piperazine-1-carboxamide hydrochloride], under setting [2], the IC90 turned out to be 363 nM.

On to `Cn1c(-c2cn(CC3CCC3)nc2C(F)(F)F)cnc1C(=O)Nc1ccc(C(=O)N2CCN(C(=O)[C@H]3C[C@@H](N)C3)CC2)c(Cl)c1` [Example 295, rac-N-(4-(4-((1s,3s)-3-aminocyclobutane-1-carbonyl)piperazine-1-carbonyl)-3-chlorophenyl)-5-(1-(cyclobutylmethyl)-3-(trifluoromethyl)-1H-pyrazol-4-yl)-1-methyl-1H-imidazole-2-carboxamide hydrochloride], for which, under setting [1], the IC90 amounted to 364 nM.

Take `CCn1cc(-c2cnc(C(=O)Nc3ccc(C(=O)N4CCN(C(=O)N[C@H]5C[C@@H](N)C5)CC4)c(Cl)c3)n2C)c(C(F)(F)F)n1` [Example 296, N-(3-aminocyclobutyl)-4-[2-chloro-4-[[5-[1-ethyl-3-(trifluoromethyl)pyrazol-4-yl]-1-methylimidazole-2-carbonyl]amino]benzoyl]pipera-zine-1-carboxamide;formic acid]: under setting [1], the IC90 is 364 nM. Take `CN1CCN(C(=O)N2CCN(C(=O)c3ccc(NC(=O)c4ncc(-c5cn(C6CC6)nc5C(F)(F)F)n4C)cc3Cl)CC2)CC1` [Example 297, N-(3-chloro-4-(4-(4-methylpiperazine-1-carbonyl)piperazine-1-carbonyl)phenyl)-5-(1-cyclopropyl-3-(trifluoromethyl)-1H-pyrazol-4-yl)-1-methyl-1H-imidazole-2-carboxamide]: the IC90 under setting [1] turned out to be 365 nM. Same read-out and setting: to `Cn1c(-c2cn(CCF)nc2C(F)(F)F)cnc1C(=O)Nc1ccc(C(=O)N2CCN(C(=O)[C@H]3C[C@H](N)C3)CC2)c(Cl)c1` [Example 298, N-[4-[4-(3-aminocyclobutanecarbonyl)piper-azine-1-carbonyl]-3-chlorophenyl]-5-[1-(2-fluoroethyl)-3-(trifluoromethyl)pyrazol-4-yl]-1-methylimidazole-2-carboxamide;trihydrochloride] belongs 365 nM; to `Cn1c(-c2cn(C3CC3)nc2C(F)(F)F)cnc1C(=O)Nc1ccc(C(=O)N2CCN(C(=O)[C@H]3CCNC3)CC2)c(Cl)c1` [Example 299, (S)-N-(3-chloro-4-(4-(pyrrolidine-3-carbonyl)piperazine-1-carbonyl)phenyl)-5-(1-cyclopropyl-3-(trifluoromethyl)-1H-pyrazol-4-yl)-1-methyl-1H-imidazole-2-carboxamide hydrochloride], 366 nM; to `Cn1c(-c2cn(CC(F)F)nc2C(F)(F)F)cnc1C(=O)Nc1ccc(C(=O)N2CCN(C(=O)C3CCNCC3)CC2)c(F)c1` [Example 301, 5-(1-(2,2-difluoroethyl)-3-(trifluoromethyl)-1H-pyrazol-4-yl)-N-(3-fluoro-4-(4-(piperidine-4-carbonyl)piperazine-1-carbonyl)phenyl)-1-methyl-1H-imidazole-2-carboxamide], 369 nM. Still for that read-out and setting: to `Cn1c(-c2cn(C3CC3)nc2C(F)(F)F)cnc1C(=O)Nc1ccc(C(=O)N2CCN(C(=O)CCCN)CC2)c(Cl)c1` [Example 302, N-(4-(4-(4-aminobutanoyl)piperazine-1-carbonyl)-3-chlorophenyl)-5-(1-cyclopropyl-3-(trifluoromethyl)-1H-pyrazol-4-yl)-1-methyl-1H-imidazole-2-carboxamide hydrochloride] belongs 370 nM.

With `Cn1c(-c2cn(CC(F)F)nc2C(F)(F)F)cnc1C(=O)Nc1ccc(C(=O)N2CCN(C(=O)NCC3(O)CNC3)CC2)c(Cl)c1` [Example 303, 4-[2-chloro-4-[[5-[1-(2,2-difluoroethyl)-3-(trifluoromethyl)pyrazol-4-yl]-1-methyl-imidazole-2-carbonyl]amino]benzoyl]-N-[(3-hydroxyazetidin-3-yl)methyl]piperazine-1-carboxamide; formic acid], the IC90 under setting [1] is 371 nM. For `Cn1c(-c2cn(CC3CCCC3)nc2C(F)(F)F)cnc1C(=O)Nc1ccc(C(=O)N2CCN(C(=O)C3CCNCC3)CC2)c(Cl)c1` [Example 304, N-(3-chloro-4-(4-(piperidine-4-carbonyl)piperazine-1-carbonyl)phenyl)-5-(1-(cyclopentylmethyl)-3-(trifluoromethyl)-1H-pyrazol-4-yl)-1-methyl-1H-imidazole-2-carboxamide hydrochloride], under setting [1], the 90% effect concentration (IC90) is 371 nM.

Take `Cn1c(-c2cn(CC(F)(F)F)nc2C(F)(F)F)cnc1C(=O)Nc1ccc(C(=O)N2CCN(C(=O)N[C@H]3C[C@@H](N)C3)CC2)c(Cl)c1` [Example 305, rac-N-((1s,3s)-3-aminocyclobutyl)-4-(2-chloro-4-(1-methyl-5-(1-(2,2,2-trifluoroethyl)-3-(trifluoromethyl)-1H-pyrazol-4-yl)-1H-imidazole-2-carboxamido)benzoyl)piperazine-1-carboxamide hydrochloride]: the IC90 under setting [1] was determined as 373 nM.
